What was measured:
[1] = Test Example 2: Appearance (degree of coloring) of aqueous solution left at 70° C.; format: physicochemical; details: stabilizing component added to aqueous solution of Compound A
Protocol: To examine the stabilizing effect of a stabilizing component, the degree of coloring was determined. […] Subsequently, the color tone of each filtrate was observed visually.

[2] = cited from earlier work

SMILES | Results in view of appearance [1] | Water solubility [2]
O=C(O)CN(CCO)CCO [bicine, N,N-bis(2-hydroxyethyl)glycine] | particularly favorable | 
O=C(O)CN(CCN(CC(=O)O)CC(=O)O)CC(=O)O [EDTA, ethylenediamine tetraacetic acid] | particularly favorable | 
NC(CO)(CO)CO [trometamol] | particularly favorable | 
NC(=O)c1nc(F)c[nH]c1=O [Compound A, 6-fluoro-3-hydroxy-2-pyrazinecarboxamide] |  | low water solubility
O=C(O)CNC(CO)(CO)CO [tricine, N-[tris(hydroxymethyl)methyl]glycine] | particularly favorable | 
